Laboratory results from the supplement of paper PMC10627819.

Experiments:
B. subtilis 168 [1] = assay: fitness (endpoint OD595 vs no drug) (fraction); higher = more growth
Method in brief: (§1)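 Growth medium was TSB, LB Lennox or CY, and plates were kept at 37 °C. Inoculation was at OD595 0.01 in 384-well plates, at 30 µl per well or 55 µl for S. pneumoniae. OD595 was monitored every 30 min for 14 h and background-subtracted using the first reading. Fitness is the optical density on entering stationary phase divided by the robust mean of no-drug controls, with values capped at 1.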

S. aureus DSM 20231 [2] = assay: as above
Method in brief: as §1

S. aureus Newman [3] = assay: as above
Method in brief: as §1

S. pneumoniae D39V [4] = assay: as above
Method in brief: as §1

B. subtilis 168 [5] = assay: Bliss interaction score (quartile over a dose matrix) (fitness difference); higher = more antagonism (negative = synergy)
Method in brief: (§2)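 The Bliss score is observed fitness minus expected fitness, where the expected value is the product of single-drug fitness values inferred from combination data. Fitness is OD595 at entry into stationary phase normalised to the plate's robust no-drug mean and capped at 1. Scores are reported as quartiles spanning technical, biological and donor/recipient replicates.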

S. aureus DSM 20231 [6] = assay: as above
Method in brief: as §2

S. aureus Newman [7] = assay: as above
Method in brief: as §2

S. pneumoniae D39V [8] = assay: as above
Method in brief: as §2
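Throughout, for Bliss interaction score (quartile over a dose matrix): first quartile when negative (synergy) and third quartile when positive (antagonism).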
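Throughout, for fitness (endpoint OD595 vs no drug): OD595 on entry to stationary phase over no-drug wells; at most 1.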

C[n+]1ccc(-c2cc[n+](C)cc2)cc1 [Paraquat] + CCN(CC)CCOC(=O)c1ccc(N)cc1 [Procaine]
fitness
Conditions | first compound 1.25 µg/mL | first compound 1.5 µg/mL | first compound 2.5 µg/mL | first compound 3 µg/mL | first compound 5 µg/mL | first compound 6 µg/mL
B. subtilis 168 [1], partner 85.5 µg/mL | 0.954 | – | 0.877 | – | 0.813 | –
B. subtilis 168 [1], partner 171 µg/mL | 0.943 | – | 0.935 | – | 0.837 | –
B. subtilis 168 [1], partner 342 µg/mL | 0.89 | – | 0.89 | – | 0.812 | –
S. aureus DSM 20231 [2], partner 85.5 µg/mL | 0.906 | – | 0.944 | – | 0.95 | –
S. aureus DSM 20231 [2], partner 171 µg/mL | 0.936 | – | 0.981 | – | 0.996 | –
S. aureus DSM 20231 [2], partner 342 µg/mL | 0.966 | – | 0.97 | – | 0.98 | –
S. aureus Newman [3], partner 85.5 µg/mL | 0.959 | – | 0.917 | – | 0.948 | –
S. aureus Newman [3], partner 171 µg/mL | 0.956 | – | 0.909 | – | 0.951 | –
S. aureus Newman [3], partner 342 µg/mL | 0.944 | – | 0.947 | – | 0.937 | –
S. pneumoniae D39V [4], partner 85.5 µg/mL | – | ≥ 1 | – | ≥ 1 | – | ≥ 1
S. pneumoniae D39V [4], partner 171 µg/mL | – | ≥ 1 | – | 0.998 | – | ≥ 1
S. pneumoniae D39V [4], partner 342 µg/mL | – | 0.988 | – | 0.971 | – | 0.951

Conditions | Bliss interaction score
B. subtilis 168 [5] | 0.0621
S. aureus DSM 20231 [6] | 0.0567
S. aureus Newman [7] | 0.0516
S. pneumoniae D39V [8] | 0.0315

C[n+]1ccc(-c2cc[n+](C)cc2)cc1 [Paraquat] + CN1C2=CC=CC=C2N=C3C1=CC=CC3=O [Pyocyanin]
fitness
Conditions | first compound 1.25 µg/mL | first compound 1.5 µg/mL | first compound 2.5 µg/mL | first compound 3 µg/mL | first compound 5 µg/mL | first compound 6 µg/mL
B. subtilis 168 [1], partner 1.25 µg/mL | 0.918 | – | 0.903 | – | 0.802 | –
B. subtilis 168 [1], partner 2.5 µg/mL | 0.866 | – | 0.838 | – | 0.673 | –
B. subtilis 168 [1], partner 5 µg/mL | 0.721 | – | 0.707 | – | 0.534 | –
S. aureus DSM 20231 [2], partner 1.25 µg/mL | 0.918 | – | 0.931 | – | 0.905 | –
S. aureus DSM 20231 [2], partner 2.5 µg/mL | 0.891 | – | 0.879 | – | 0.858 | –
S. aureus DSM 20231 [2], partner 5 µg/mL | 0.627 | – | 0.647 | – | 0.595 | –
S. aureus Newman [3], partner 1.25 µg/mL | 0.838 | – | 0.799 | – | 0.825 | –
S. aureus Newman [3], partner 2.5 µg/mL | 0.821 | – | 0.776 | – | 0.751 | –
S. aureus Newman [3], partner 5 µg/mL | 0.401 | – | 0.382 | – | 0.366 | –
S. pneumoniae D39V [4], partner 0.325 µg/mL | – | ≥ 1 | – | ≥ 1 | – | ≥ 1
S. pneumoniae D39V [4], partner 0.65 µg/mL | – | 0.954 | – | 0.97 | – | 0.955

S. pneumoniae D39V [4], partner 1.3 µg/mL, one replicate
Conditions | fitness
first compound 1.5 µg/mL | 0.528
first compound 3 µg/mL | 0.597
first compound 6 µg/mL | 0.601

Conditions | Bliss interaction score
B. subtilis 168 [5] | -0.0646
S. aureus DSM 20231 [6] | -0.0554
S. aureus Newman [7] | 0.0765
S. pneumoniae D39V [8] | -0.0783

C[n+]1ccc(-c2cc[n+](C)cc2)cc1 [Paraquat] + CN(N=O)C(=O)N[C@@H](C=O)[C@@H](O)[C@H](O)[C@H](O)CO [Streptozotocin]
fitness, B. subtilis 168 [1], one replicate
Conditions | first compound 1.25 µg/mL | first compound 2.5 µg/mL | first compound 5 µg/mL
partner 0.15 µg/mL | ≥ 1 | ≥ 1 | 0.845
partner 0.3 µg/mL | ≥ 1 | 0.964 | 0.851
partner 0.6 µg/mL | 0.945 | 0.956 | 0.776

fitness
Conditions | first compound 1.25 µg/mL | first compound 1.5 µg/mL | first compound 2.5 µg/mL | first compound 3 µg/mL | first compound 5 µg/mL | first compound 6 µg/mL
S. aureus DSM 20231 [2], partner 0.15 µg/mL | 0.865 | – | 0.835 | – | 0.774 | –
S. aureus DSM 20231 [2], partner 0.3 µg/mL | 0.795 | – | 0.842 | – | 0.758 | –
S. aureus DSM 20231 [2], partner 0.6 µg/mL | 0.679 | – | 0.689 | – | 0.636 | –
S. aureus Newman [3], partner 0.15 µg/mL | 0.781 | – | 0.769 | – | 0.727 | –
S. aureus Newman [3], partner 0.3 µg/mL | 0.66 | – | 0.654 | – | 0.637 | –
S. aureus Newman [3], partner 0.6 µg/mL | 0.523 | – | 0.536 | – | 0.508 | –
S. pneumoniae D39V [4], partner 1.2 µg/mL | – | 0.989 | – | 0.983 | – | 0.969
S. pneumoniae D39V [4], partner 2.4 µg/mL | – | 0.97 | – | 0.926 | – | 0.977
S. pneumoniae D39V [4], partner 4.8 µg/mL | – | 0.944 | – | 0.955 | – | 0.933

Conditions | Bliss interaction score
B. subtilis 168 [5] | 0.0356
S. aureus DSM 20231 [6] | -0.0445
S. aureus Newman [7] | -0.0522
S. pneumoniae D39V [8] | 0.0357

C[n+]1ccc(-c2cc[n+](C)cc2)cc1 [Paraquat] + CN[C@@H]1[C@H](O)[C@H](NC)[C@H]2O[C@@]3(O)C(=O)C[C@@H](C)O[C@H]3O[C@@H]2[C@H]1O [Spectinomycin]
fitness
Conditions | first compound 1.25 µg/mL | first compound 1.5 µg/mL | first compound 2.5 µg/mL | first compound 3 µg/mL | first compound 5 µg/mL | first compound 6 µg/mL
B. subtilis 168 [1], partner 2 µg/mL | 0.97 | – | 0.989 | – | 0.902 | –
B. subtilis 168 [1], partner 4 µg/mL | 0.986 | – | 0.964 | – | 0.847 | –
B. subtilis 168 [1], partner 8 µg/mL | 0.877 | – | 0.882 | – | 0.847 | –
S. aureus DSM 20231 [2], partner 4 µg/mL | 0.946 | – | 0.909 | – | 0.844 | –
S. aureus DSM 20231 [2], partner 8 µg/mL | 0.913 | – | 0.844 | – | 0.817 | –
S. aureus DSM 20231 [2], partner 16 µg/mL | 0.837 | – | 0.874 | – | 0.758 | –
S. aureus Newman [3], partner 4 µg/mL | 0.857 | – | 0.85 | – | 0.825 | –
S. aureus Newman [3], partner 8 µg/mL | 0.872 | – | 0.825 | – | 0.906 | –
S. aureus Newman [3], partner 16 µg/mL | 0.89 | – | 0.849 | – | 0.833 | –
S. pneumoniae D39V [4], partner 4 µg/mL | – | 0.964 | – | 0.976 | – | 0.995
S. pneumoniae D39V [4], partner 8 µg/mL | – | 0.958 | – | 0.969 | – | 0.951

fitness, one replicate
Conditions | first compound 1.25 µg/mL | first compound 1.5 µg/mL | first compound 2.5 µg/mL | first compound 3 µg/mL | first compound 5 µg/mL | first compound 6 µg/mL
S. aureus DSM 20231 [2], partner 32 µg/mL | 0.669 | – | 0.713 | – | 0.735 | –
S. aureus DSM 20231 [2], partner 64 µg/mL | 0.0748 | – | 0.0594 | – | 0.0636 | –
S. aureus Newman [3], partner 32 µg/mL | 0.62 | – | 0.6 | – | 0.563 | –
S. aureus Newman [3], partner 64 µg/mL | 0.0529 | – | 0.0827 | – | 0.106 | –
S. pneumoniae D39V [4], partner 16 µg/mL | – | 0.851 | – | 0.856 | – | 0.913

Conditions | Bliss interaction score
B. subtilis 168 [5] | 0.0537
S. aureus DSM 20231 [6] | -0.046
S. aureus Newman [7] | 0.0596
S. pneumoniae D39V [8] | 0.0349

C[n+]1ccc(-c2cc[n+](C)cc2)cc1 [Paraquat] + COc1ccc(C[C@H](N)C(=O)N[C@H]2[C@@H](O)[C@H](n3cnc4c(N(C)C)ncnc43)O[C@@H]2CO)cc1 [Puromycin]
fitness
Conditions | first compound 1.25 µg/mL | first compound 1.5 µg/mL | first compound 2.5 µg/mL | first compound 3 µg/mL | first compound 5 µg/mL | first compound 6 µg/mL
B. subtilis 168 [1], partner 0.39 µg/mL | 0.957 | – | 0.913 | – | 0.792 | –
B. subtilis 168 [1], partner 0.78 µg/mL | 0.924 | – | 0.894 | – | 0.779 | –
B. subtilis 168 [1], partner 1.56 µg/mL | 0.883 | – | 0.858 | – | 0.747 | –
S. aureus DSM 20231 [2], partner 0.39 µg/mL | 0.978 | – | 0.98 | – | 0.977 | –
S. aureus DSM 20231 [2], partner 0.78 µg/mL | 0.97 | – | ≥ 1 | – | 0.983 | –
S. aureus DSM 20231 [2], partner 1.56 µg/mL | 0.964 | – | ≥ 1 | – | 0.989 | –
S. aureus Newman [3], partner 0.39 µg/mL | 0.937 | – | 0.965 | – | 0.979 | –
S. aureus Newman [3], partner 0.78 µg/mL | ≥ 1 | – | 0.99 | – | 0.981 | –
S. aureus Newman [3], partner 1.56 µg/mL | ≥ 1 | – | 0.971 | – | 0.994 | –
S. pneumoniae D39V [4], partner 1 µg/mL | – | 0.996 | – | ≥ 1 | – | ≥ 1
S. pneumoniae D39V [4], partner 2 µg/mL | – | 0.973 | – | 0.982 | – | 0.966
S. pneumoniae D39V [4], partner 4 µg/mL | – | 0.852 | – | 0.856 | – | 0.861

fitness, S. aureus DSM 20231 [2], one replicate
Conditions | first compound 1.25 µg/mL | first compound 2.5 µg/mL | first compound 5 µg/mL
partner 3.12 µg/mL | 0.926 | 0.976 | 0.965
partner 6.24 µg/mL | 0.732 | 0.703 | 0.689

Conditions | Bliss interaction score
B. subtilis 168 [5] | 0.0238
S. aureus DSM 20231 [6] | 0.0717
S. aureus Newman [7] | 0.0892
S. pneumoniae D39V [8] | 0.135
